According to US20220251105A1, “METHODS OF TREATING A MK2-MEDIATED DISORDER” (Celgene CAR LLC, priority 2019, published 2022):

Columns and labels:
[1] = plasma exposure in HLA-B27/Huβ2m rats; settings: 10 mg/kg daily oral (comparator)
Excerpt: In each disease model, steady-state pharmacokinetics were characterized.

[2] = system: Ankylosing spondylitis in HLA B27 Tg rat; assay: HLA-B27/Huβ2m transgenic rat model of ankylosing spondylitis
Excerpt: Etanercept and tofactinib (Balagué et al. Profiling of dihydroorotate dehydrogenase, p38 and JAK inhibitors in the rat adjuvant-induced arthritis model: a translational study. Br J Pharmacol. 2012 June; 166(4):1320-32) were included in this rat study as comparator molecules.

Row | Molecule | AUCLST [1] [ng·h/mL] | Paw Swelling Inhibition (%) ([2]; 10 mg/kg daily oral gavage (comparator)) | Paw Swelling Inhibition (%) ([2]; 10 mg/kg twice weekly subcutaneous injection (comparator))
1 | C[C@@H]1CCN(C(=O)CC#N)C[C@@H]1N(C)c1ncnc2[nH]ccc12 [Tofacitinib, tofacitinib, reference compound] | 6540 | 47 | –
2 | Etanercept | – | – | 42
